In patent US9675715B2, “Contrast agent for photoacoustic imaging” (CANON KABUSHIKI KAISHA, priority 2012, dated 2017):
Entries after “also recorded” stand apart in the source; their conditions may differ.

Legend:
[1] = system: sentinel lymph node (mouse popliteal lymph node); test: Accumulation in sentinel lymph node, absorbance of lymph node extracts; assay type: in vivo; settings: 1 day after administration, 10 nmol dye, accumulation of ICG defined as 1
Protocol: In examples of the present invention, the transfer of the contrast agent for PAI into a sentinel lymph node (SLN) was evaluated by the use of a mouse popliteal lymph node. Ten microliters of the contrast agent was administered subcutaneously into the plantar surface of a nude mouse.
As a comparative example, mouse popliteal lymph nodes were removed 1 day after the administration of various contrast agents, homogenized, and extracted. The resulting extracts were subjected to absorbance measurement.
Accumulation rates were each calculated on the basis of the following formula: Accumulation rate={(absorbance of removed mouse popliteal lymph node)/(absorbance corresponding to amount of sample administered)}×100
After the calculation of the accumulation, the accumulation ratios of various materials were calculated when the accumulation 1 day after the administration of ICG was defined as 1.
According to “Evaluation example of accumulation in sentinel lymph node”, the accumulation in a sentinel lymph node was evaluated. In this example, 10 nmol of the contrast agent in terms of the amount of the dye was administered to a mouse.

[2] = system: sentinel lymph node (mouse popliteal lymph node); test: Photoacoustic imaging of sentinel lymph node after subcutaneous plantar administration; assay type: in vivo; settings: photoacoustic imaging 1 day after subcutaneous administration into plantar surface of nude mouse, 130 nmol dye
Protocol: (§1) A commercially available photoacoustic imaging apparatus (Nexus128, manufactured by Endra Inc.) was used. Photoacoustic signals were measured at predetermined timings before and after the administration of a prepared contrast agent for PAI, and three-dimensional reconstruction data was acquired for each timing. The photoacoustic signal intensity in a region of interest (ROI) was measured on the basis of the resulting three-dimensional reconstruction data using software (GEHC MICROVIEW, GE Healthcare) or the like.

[3] = known; cited from earlier work
[4] = system: tumor site; test: Photoacoustic signal intensity at tumor site 1 day after administration, relative to ICG; assay type: in vivo, mouse
Protocol: as §1

[5] = system: cerebral blood vessels; settings: rat, free ICG administered in blood, NPL 1; cited from earlier work
[6] = Accumulation of contrast agent in Colon 26 tumor, dye extraction and fluorescence; assay type: in vivo; settings: BALB/c Slc-nu/nu, mouse, intravenous, 13 nmol in terms of ICG
Protocol: (§2) Tumor model mice were prepared by subcutaneously implanting Colon 26 cells into BALB/c Slc-nu/nu mice.
(§3) Tumor model mice were prepared by subcutaneously implanting Colon 26 cells into BALB/c Slc-nu/nu mice. […] Furthermore, in this example, an aqueous solution of ICG (available from Pharmaceutical and Medical Device Regulatory Science of Japan) was used as a control sample.

[7] = Blood accumulation in Colon 26 tumor model mice; assay type: in vivo; settings: BALB/c Slc-nu/nu, mouse, intravenous, 13 nmol in terms of ICG, read-out: Blood accumulation 1 day after administration
Protocol: as §2, §3

[8] = Hydrodynamic average particle size by dynamic light scattering; assay type: physicochemical; settings: DLS-8000
Excerpt: In this embodiment, the particle size of the particles may be determined by measuring the hydrodynamic average particle size using the dynamic light scattering (DLS) method with a dynamic light scattering spectrophotometer (DLS-8000, manufactured by Otsuka Electronics Co., Ltd).
The ICG-encapsulating micellar particles refer to micellar particles in which ICG is contained in surfactant micelles by a known emulsification technique.

[9] = system: N87 cell line tumor; test: Amount transferred into tumor mass, fluorescence imaging of N87 tumor-bearing mice; assay type: in vivo, mouse; settings: 1 day after administration, fluorescence ROI of tumor site, relative to ROI value of ICG
Protocol: The tumor-bearing mice were prepared by subcutaneously implanting a human gastric cancer cell line (N87) or a human cervical cancer cell line (HeLa) into nude mice. Then 130 nmol of a contrast agent in terms of the amount of the dye was administered into each of the tumor-bearing mice. […] As a comparative example, fluorescence imaging of the tumor-bearing mice was performed 1 day after the administration. Fluorescence imaging was performed with IVIS (registered trademark) Imaging System to measure fluorescence intensity in a region of interest (ROI) of the tumor site.
The tumor accumulation 1 day after the administration was evaluated by fluorescence. The accumulation in ROI of the tumor site was calculated.

## CC1(C)C(/C=C/C=C/C=C/C=C2/N(CCCCS(=O)(=O)[O-])c3ccc4ccccc4c3C2(C)C)=[N+](CCCCS(=O)(=O)[O-])c2ccc3ccccc3c21.[Na+] [ICG, indocyanine green]
[1]
  Relative accumulation: 1.0
[2]
  Visualization of SLN: substantially no photoacoustic signal was observed; also recorded: unvisualizable
[3]
  half-life in blood: about several minutes
[4]
  Relative photoacoustic signal intensity 1 day after administration (signal intensity in administration of ICG = 1.0): 1.0
[5]
  time after administration at which photoacoustic signal intensity is reduced to a level equal to that of blood: several tens of minutes
[6]; tumor / blood, 1 day after administration, read-out: Ratio of accumulation (tumor/blood)
  Kp at 24 h: 0.5
[6]; tumor tissue (Colon 26), Colon 26 tumor, 24 hours, read-out: Tumor accumulation 1 day after administration
  tissue uptake at 24 h: 0.1 %ID/g
[7]
  tissue uptake at 1 day: 0.2 %ID/g
[8]
  Hydrodynamic average particle size: unmeasurable
[9]
  Relative tumor accumulation: 1.0
